US20250179125A1, “Alpha-sheet Polypeptides and Their Use” (University of Washington, priority 2021, published 2025)
Bridge positions count the residues as written; N and C are the ends. Square brackets hold non-standard residues; d marks the D form. Peptide text beside a SMILES is read from it. I, II: the chains in the order shown.

Assays:
[1] = target: T1, Aβ42 (Homo sapiens, UniProt P05067); assay type: biochemical; settings: 7500.0
T1 construct: Remove Aβ42 film(s) from −80° C
Description: Peptides were co-incubated with 75 μM Aβ in PBS aggregation buffer and monitored for β-sheet formation via ThT fluorescence over time. In each case, AB alone (ie Aβ aggregating in PBS without any inhibitor) was run as the standard control and used for calculating % inhibition by the following equation:
Importantly, each value had its corresponding ‘blank’ subtracted from the raw data, ie: End Inhibitor value=Raw value at the end of the assay-value for peptide alone in PBS at the given concentration.
The ‘blank’ values never exceeded more than 2× starting Aβ value to ensure that overcorrection is not the source of efficacy in data processing-end Aβ value was on average 20× starting Aβ value. Peptide concentration was varied while Aβ concentration remained fixed to investigate the potency of the designs at equal- and sub-stoichiometric ratios of AP: Aβ (ratios investigated include 1:1, 1:10, and 1:100). […]
Inhibition of Abeta aggregation was assessed in our standard ThT assay and the results can be compared to those in the table comparing different peptides in their monomeric and dimeric forms with 10-fold excess of Abeta.
Aβ aggregation and fibril formation, as well as inhibition experiments with α-sheet peptides, were monitored via ThT fluorescence according to the procedure, as follows. […]

[2] = tested on: E. coli GERB319 biofilms; assay: Biofilm ThT assay in clinical isolate E. coli GERB319; assay type: cell-based; settings: dimeric peptides 8 μM, AP5 and P1 16 μM
Description: (§1) FIG. 4(a-b). Inhibition of amyloid formation by alpha-sheet designs in live E. coli clinical isolates. […] The concentrations are provided for the dimers, but the P1 and AP5 monomers were double that concentration to provide the same number of monomer units for comparison of the designs (ex. where it says 5 μM applied AP5, it was actually 10 μM). cNFU=corrected, normalized fluorescence units, where normalized signals were corrected by the nonspecific ThT fluorescence of E. coli UTI89 ΔcsgA biofilms. (b) Synthetic α-sheet peptides AP193 and AP195 decreased the ThT fluorescence of E. coli GERB319 biofilms, a clinical UTI isolate with resistance to gentamicin and ciprofloxacin (the dimeric peptides were added at 8 μM and AP5 and P1 were 16 μM to provide the same monomer equivalents). The unstructured control peptide P1 had no effect when applied at the same concentration. […]
Overnight cultures were grown in LB medium for ˜18 h. […] Peptide stocks were dissolved in water and concentrations were determined by Nanodrop™ (Thermo Scientific; Waltham, MA). […] Planktonic cells were spun down and resuspended in PBS, and the optical density of both planktonic and rinse samples was determined at 600 nm to estimate cell densities. […] 100 μL of each biofilm suspension was then transferred to a black-walled, clear-bottom 96 well plate for measurements in a plate reader (PerkinElmer; Waltham, MA). […]

[3] = tested on: E. coli UTI89 WT biofilms; assay: Biofilm ThT assay in live E. coli UTI89 WT; assay type: cell-based; settings: 48 h growth, dimers 1-8 μM, monomers double
Description: FIG. 2. Protocol to test inhibition of biofilm amyloid formation in live E. coli. Amyloid formation is assessed through a ThT assay like that used with Abeta and IAPP above. In addition, inhibition of amyloid disrupts the biofilm, leading to an increase in planktonic free-floating bacteria cells, which are then susceptible to antibiotics.
as §1
Overnight cultures were grown in LB medium for ˜18 h. […] Peptide stocks were dissolved in water and concentrations were determined by Nanodrop™ (Thermo Scientific; Waltham, MA). […]

[4] = tested on: curli amyloid fibril formation in live E. coli; assay: TEM of curli amyloid fibril formation in E. coli biofilms; assay type: cell-based; settings: equimolar concentrations
Description: FIG. 3(a-c).TEM images reveal extensive curli amyloid fibril formation in (a) peptide-free biofilms and biofilms grown in the presence of (c) P1, but not those grown in the presence of (b) AP195 dimer (Scale bars=2 μm). P1 and AP195 were added at equimolar concentrations. AP195 is an α-sheet peptide and P1 is a random coil control.
The random coil peptide control (P1) had no effect.

T1 sequence (P05067 672-713 limits assumed): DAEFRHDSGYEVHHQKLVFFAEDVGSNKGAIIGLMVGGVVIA

Row | Compound | % Inhibition 1:10 (AP peptide:Abeta42) [1] [%] | ThT fluorescence of biofilms [2] | amyloid content in biofilms, ThT fluorescence (cNFU) [3] | curli amyloid fibril formation (TEM) [4]
1 | CSCC[C@H](NC(=O)[C@@H](CCC(=O)O)NC(=O)CNC(=O)[C@@H](CCCNC(=N)N)NC(C)=O)C(=O)N[C@H](CC(N)=O)C(=O)N[C@@H](CC(C)C)C(=O)N[C@H](CO)C(=O)N[C@@H](Cc1c[nH]c2ccccc12)C(=O)N[C@H](CCSC)C(=O)N[C@H](CC(N)=O)C(=O)N[C@H](CCC(=O)O)C(=O)N[C@H](Cc1ccc(O)cc1)C(=O)N[C@H](Cc1ccc(O)cc1)C(=O)NCC(=O)N[C@H](Cc1c[nH]c2ccccc12)C(=O)N[C@H](C(=O)N[C@H](CCSC)C(=O)N[C@@H](CC(N)=O)C(=O)N[C@H](CCSC)C(=O)N[C@@H](CCCCN)C(=O)N[C@H](CS)C(=O)NCC(=O)N[C@H](CCCNC(=N)N)C(N)=O)[C@@H](C)O [AP527m, Ac-rGeMnLsWmneyyGwTmNmKcGr-NH2] (Ac-[dR]G[dE]M[dN]L[dS]W[dM][dN][dE][dY][dY]G[dW]T[dM]N[dM]K[dC]G[dR]-NH2) | 14 |  |  | 
2 | I: Ac-RGN[dW]N[dE]S[dK]MNEYSGW[dM]L[dM]C[dT]MGR-NH2 / II: Ac-RGN[dW]N[dE]S[dK]MNEYSGW[dM]L[dM]C[dT]MGR-NH2 (disulfide I:19-II:19) [AP500d, Ac-RGNwNeSkMNEYSGWmLmCtMGR-NH2] |  | significant decrease | dose-dependent reduction | inhibition of fibril formation
3 | I: Ac-[dR]G[dE]M[dN]L[dS]W[dM][dN][dE][dY][dY]G[dW]T[dM]N[dM]K[dC]G[dR]-NH2 / II: Ac-[dR]G[dE]M[dN]L[dS]W[dM][dN][dE][dY][dY]G[dW]T[dM]N[dM]K[dC]G[dR]-NH2 (disulfide I:21-II:21) [AP527d, Ac-rGeMnLsWmneyyGwTmNmKcGr-NH2] | 96 |  |  | 
